The experiment in a line: Cytotoxicity against human HL60 cells after 24 hrs by MTT assay. The class given is functional, cell-based. The settings on record: HL-60, 24 h. For orientation: Tetrazolium dyes change colour on reduction, which living cells bring about.

Each structure is given as a SMILES string.

As usually defined, the IC50 is the concentration at which inhibition is half-maximal. A lower IC50 goes with greater potency. Compound `CCCCCCCCCC(=O)C[C@H](O)C[C@@H]1CC=CC(=O)O1` gave an IC50 of 1200 nM. The figure for `CCCCCCCCCC(=O)C[C@@H](O)C[C@@H]1CC=CC(=O)O1` is 5300 nM.

`CCCCCCCCCCCC(=O)C[C@H](O)C[C@@H]1CC=CC(=O)O1` returned a 50% inhibitory concentration (IC50) of 970 nM. `CCCCCCCCCCCC(=O)C[C@@H](O)C[C@@H]1CC=CC(=O)O1` returned a concentration for half-maximal inhibition (IC50) of 4900 nM. Regarding `COc1cccc2c1C(=O)c1c(O)c3c(c(O)c1C2=O)C[C@@](O)(C(=O)CO)C[C@@H]3O[C@H]1C[C@H](N)[C@H](O)[C@H](C)O1` [DOXORUBICIN], half-maximal inhibition (IC50) was put at 140 nM.

The record behind these values is ChEMBL document CHEMBL3351660, “Isolation and total syntheses of cytotoxic cryptolactones A1, A2, B1, and B2: α,β-unsaturated δ-lactones from a Cryptomyzus sp. aphid” (J Nat Prod, 2014).
